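Where inhibition never reached the appropriate level, the endpoint shown equals the highest concentration tested. Otherwise, values were interpolated linearly from a five-concentration, 48-hour dose response in 96-well plates. GI50: concentration for 50% inhibition of growth.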 Activity calls are given as the source filed them. Rule as the data show it: active = GI50 up to about 1.1 µM and inactive = higher.
Key:
Assay in all cases: inhibition of tumour cell growth, NCI panel, 48 h
786-0 = tested on: 786-0
A498 = tested on: A498
A549 = tested on: A549
ACHN = tested on: ACHN
CAKI-1 = tested on: CAKI-1
CCRF-CEM = tested on: CCRF-CEM
COLO 205 = tested on: COLO 205
DU-145 = tested on: DU-145
EKVX = tested on: EKVX
HCC 2998 = tested on: HCC 2998
HCT-116 = tested on: HCT-116
HCT-15 = tested on: HCT-15
HL-60 = tested on: HL-60
HOP-62 = tested on: HOP-62
HOP-92 = tested on: HOP-92
HT-29 = tested on: HT-29
Hs-578T = tested on: Hs-578T
K562 = tested on: K562
KM12 = tested on: KM12
LOX IMVI = tested on: LOX IMVI
M14 = tested on: M14
MCF7 = tested on: MCF7
MDA-MB-231 = tested on: MDA-MB-231
MDA-MB-435 = tested on: MDA-MB-435
MDA-N = tested on: MDA-N
MOLT-4 = tested on: MOLT-4
Malme-3M = tested on: Malme-3M
NCI-H226 = tested on: NCI-H226
NCI-H23 = tested on: NCI-H23
NCI-H460 = tested on: NCI-H460
NCI-H522 = tested on: NCI-H522
NCI/ADR-RES = tested on: NCI/ADR-RES
OVCAR-3 = tested on: OVCAR-3
OVCAR-5 = tested on: OVCAR-5
OVCAR-8 = tested on: OVCAR-8
PC-3 = tested on: PC-3
RPMI-8226 = tested on: RPMI-8226
RXF 393 = tested on: RXF 393
SF-268 = tested on: SF-268
SF-295 = tested on: SF-295
SF-539 = tested on: SF-539
SK-MEL-28 = tested on: SK-MEL-28
SK-MEL-2 = tested on: SK-MEL-2
SK-MEL-5 = tested on: SK-MEL-5
SK-OV-3 = tested on: SK-OV-3
SN12C = tested on: SN12C
SNB-19 = tested on: SNB-19
SNB-75 = tested on: SNB-75
SR = tested on: SR
SW-620 = tested on: SW-620
T47D = tested on: T47D
TK-10 = tested on: TK-10
U-251 = tested on: U-251
UACC-257 = tested on: UACC-257
UACC-62 = tested on: UACC-62
UO-31 = tested on: UO-31
IGROV-1 = tested on: IGROV-1
OVCAR-4 = tested on: OVCAR-4

CN(C)N1C(=O)SCC(c2ccccc2)(c2ccccc2)C1=O
GI50 (786-0): > 100 µM (inactive)
GI50 (A498): > 100 µM (inactive)
GI50 (A549): 68.2 µM (inactive)
GI50 (ACHN): > 100 µM (inactive)
GI50 (CAKI-1): > 100 µM (inactive)
GI50 (CCRF-CEM): > 100 µM (inactive)
GI50 (COLO 205): > 100 µM (inactive)
GI50 (DU-145): > 100 µM (inactive)
GI50 (EKVX): > 100 µM (inactive)
GI50 (HCC 2998): > 100 µM (inactive)
GI50 (HCT-116): > 100 µM (inactive)
GI50 (HCT-15): > 100 µM
GI50 (HL-60): > 100 µM (inactive)
GI50 (HOP-62): > 100 µM (inactive)
GI50 (HOP-92): > 100 µM (inactive)
GI50 (HT-29): > 100 µM (inactive)
GI50 (Hs-578T): > 100 µM (inactive)
GI50 (K562): 87.7 µM (inactive)
GI50 (KM12): > 100 µM (inactive)
GI50 (LOX IMVI): > 100 µM (inactive)
GI50 (M14): > 100 µM (inactive)
GI50 (MCF7): 54.8 µM (inactive)
GI50 (MDA-MB-231): > 100 µM (inactive)
GI50 (MDA-MB-435): > 100 µM (inactive)
GI50 (MDA-N): > 100 µM (inactive)
GI50 (MOLT-4): > 100 µM (inactive)
GI50 (Malme-3M): > 100 µM (inactive)
GI50 (NCI-H226): > 100 µM (inactive)
GI50 (NCI-H23): > 100 µM (inactive)
GI50 (NCI-H460): > 100 µM (inactive)
GI50 (NCI-H522): 84.5 µM (inactive)
GI50 (NCI/ADR-RES): > 100 µM (inactive)
GI50 (OVCAR-3): > 100 µM (inactive)
GI50 (OVCAR-5): > 100 µM (inactive)
GI50 (OVCAR-8): > 100 µM (inactive)
GI50 (PC-3): > 100 µM (inactive)
GI50 (RPMI-8226): 78 µM (inactive)
GI50 (RXF 393): > 100 µM (inactive)
GI50 (SF-268): > 100 µM (inactive)
GI50 (SF-295): > 100 µM (inactive)
GI50 (SF-539): > 100 µM (inactive)
GI50 (SK-MEL-28): > 100 µM (inactive)
GI50 (SK-MEL-2): 63.4 µM (inactive)
GI50 (SK-MEL-5): > 100 µM (inactive)
GI50 (SK-OV-3): > 100 µM (inactive)
GI50 (SN12C): > 100 µM (inactive)
GI50 (SNB-19): > 100 µM (inactive)
GI50 (SNB-75): 60.1 µM (inactive)
GI50 (SR): > 100 µM (inactive)
GI50 (SW-620): > 100 µM (inactive)
GI50 (T47D): > 100 µM (inactive)
GI50 (TK-10): > 100 µM (inactive)
GI50 (U-251): > 100 µM (inactive)
GI50 (UACC-257): > 100 µM (inactive)
GI50 (UACC-62): 56.8 µM (inactive)
GI50 (UO-31): > 100 µM (inactive)

Nc1nc2c(ncn2C2C=CC(COS(N)(=O)=O)C2)c(=O)[nH]1 (configuration not stated)
GI50 (786-0): > 100 µM (inactive)
GI50 (A549): > 100 µM (inactive)
GI50 (ACHN): > 100 µM (inactive)
GI50 (CAKI-1): > 100 µM (inactive)
GI50 (CCRF-CEM): > 100 µM (inactive)
GI50 (COLO 205): > 100 µM (inactive)
GI50 (DU-145): > 100 µM (inactive)
GI50 (EKVX): > 100 µM (inactive)
GI50 (HCC 2998): > 100 µM (inactive)
GI50 (HCT-116): > 100 µM (inactive)
GI50 (HCT-15): > 100 µM
GI50 (HL-60): > 100 µM (inactive)
GI50 (HOP-62): > 100 µM (inactive)
GI50 (HOP-92): > 100 µM (inactive)
GI50 (HT-29): > 100 µM (inactive)
GI50 (Hs-578T): > 100 µM (inactive)
GI50 (IGROV-1): > 100 µM (inactive)
GI50 (K562): > 100 µM (inactive)
GI50 (KM12): > 100 µM (inactive)
GI50 (LOX IMVI): > 100 µM (inactive)
GI50 (M14): > 100 µM (inactive)
GI50 (MCF7): > 100 µM (inactive)
GI50 (MDA-MB-231): > 100 µM (inactive)
GI50 (MDA-MB-435): > 100 µM (inactive)
GI50 (MDA-N): > 100 µM (inactive)
GI50 (MOLT-4): > 100 µM (inactive)
GI50 (Malme-3M): > 100 µM (inactive)
GI50 (NCI-H226): > 100 µM (inactive)
GI50 (NCI-H23): > 100 µM (inactive)
GI50 (NCI-H460): > 100 µM (inactive)
GI50 (NCI/ADR-RES): > 100 µM (inactive)
GI50 (OVCAR-3): > 100 µM (inactive)
GI50 (OVCAR-4): > 100 µM (inactive)
GI50 (OVCAR-5): > 100 µM (inactive)
GI50 (OVCAR-8): > 100 µM (inactive)
GI50 (PC-3): > 100 µM (inactive)
GI50 (RPMI-8226): > 100 µM (inactive)
GI50 (RXF 393): > 100 µM (inactive)
GI50 (SF-268): > 100 µM (inactive)
GI50 (SF-295): > 100 µM (inactive)
GI50 (SF-539): > 100 µM (inactive)
GI50 (SK-MEL-28): > 100 µM (inactive)
GI50 (SK-MEL-2): > 100 µM (inactive)
GI50 (SK-MEL-5): > 100 µM (inactive)
GI50 (SK-OV-3): > 100 µM (inactive)
GI50 (SN12C): > 100 µM (inactive)
GI50 (SNB-19): > 100 µM (inactive)
GI50 (SNB-75): > 100 µM (inactive)
GI50 (SR): > 100 µM (inactive)
GI50 (SW-620): > 100 µM (inactive)
GI50 (T47D): > 100 µM (inactive)
GI50 (TK-10): > 100 µM (inactive)
GI50 (U-251): > 100 µM (inactive)
GI50 (UACC-257): > 100 µM (inactive)
GI50 (UACC-62): > 100 µM (inactive)
GI50 (UO-31): > 100 µM (inactive)
